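Tested at 5 concentrations; 48 h exposure; 96-well plates; endpoints linearly interpolated, else capped at highest concentration. GI50 = concentration required for 50% inhibition of growth.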 Active and inactive are the calls of the source. Cut-off read from the data, not from the text of the source: active = GI50 up to about 1.1 µM and inactive = higher.

The results in this text go back to ChEMBL document CHEMBL1201862, “PubChem BioAssay data set” (2004).

Among the test systems are HOP-62; A549; TK-10; SNB-75; UACC-257; RPMI-8226; MDA-MB-435; 786-0; SF-295; HOP-92; NCI-H522; MCF7; K562; ACHN; SK-MEL-28; SK-MEL-2; OVCAR-4; Malme-3M.
What all share (assay): NCI tumour cell line growth inhibition, 48 h

For `O=C1[C@H](O)[C@@H]2CCC[C@@]23CCCN13`, the GI50 in the experiment on HOP-62, in the experiment on A549, in the experiment on TK-10, in the experiment with SNB-75, in the experiment on UACC-257 and with RPMI-8226 was > 100 µM (inactive) throughout. In addition, the GI50 in the experiment with MDA-MB-435, with 786-0, with SF-295, with HOP-92, in the experiment on NCI-H522 and in the experiment on MCF7 was > 100 µM (inactive) throughout. The GI50 with K562 and in the experiment on ACHN was > 100 µM (inactive) in each case.
Regarding `Nc1ccc(/N=N/c2ccc(-c3ccc(/N=N/c4c(S(=O)(=O)O)cc5cc(S(=O)(=O)O)c(/N=N/c6ccc([N+](=O)[O-])cc6)c(N)c5c4O)cc3)cc2)c2cc(S(=O)(=O)O)ccc12`, the GI50 in the experiment with HOP-62 was > 100 µM (inactive); with SK-MEL-28 it was > 100 µM (inactive); with A549 it was > 100 µM (inactive); in the experiment on SK-MEL-2 it was > 100 µM (inactive); in the experiment on TK-10 it was > 100 µM (inactive); with SNB-75, 78.9 µM (inactive). For the same compound, the GI50 was > 100 µM (inactive) with UACC-257; > 100 µM (inactive) in the experiment on RPMI-8226; > 100 µM (inactive) in the experiment on 786-0; > 100 µM (inactive) in the experiment on OVCAR-4; 84.5 µM (inactive) in the experiment on SF-295; 97.7 µM (inactive) in the experiment with HOP-92. Moreover, the GI50 in the experiment on NCI-H522, with Malme-3M, in the experiment with K562 and with ACHN was > 100 µM (inactive) each time.
For the compound `C/C=C/C[C@@H](C)[C@@H](O)[C@H]1C(=O)N[C@@H](CC)C(=O)N(C)CC(=O)N(C)[C@@H](CC(C)C)C(=O)N[C@@H](C(C)C)C(=O)N(C)[C@@H](CC(C)C)C(=O)N[C@@H](C)C(=O)N[C@H](C)C(=O)N(C)[C@@H](CC(C)C)C(=O)N(C)[C@@H](CC(C)C)C(=O)N(C)[C@@H](C(C)C)C(=O)N1C` [CYCLOSPORINE], the GI50 with HOP-62 is 3.91 µM (inactive); in the experiment with SK-MEL-28, 5.68 µM (inactive); in the experiment on A549, 5.25 µM (inactive); in the experiment on SK-MEL-2, 3.17 µM (inactive); in the experiment with TK-10 it was 7.82 µM (inactive); in the experiment on SNB-75, 7.21 µM (inactive). Moreover, the GI50 with UACC-257 was 2.05 µM (inactive); with RPMI-8226, 2.48 µM (inactive); in the experiment with 786-0, 12.8 µM (inactive); in the experiment with OVCAR-4 it was 4.18 µM (inactive); with SF-295 it was 2.79 µM (inactive); in the experiment with HOP-92 it was 4.65 µM (inactive). In addition, the GI50 in the experiment on NCI-H522 is 5.48 µM (inactive); with Malme-3M it was 7.45 µM (inactive); in the experiment on K562, 3.99 µM (inactive); in the experiment with ACHN it was 5.5 µM (inactive).
Regarding `CN(N=O)C(=O)NC(CCCCNC(=O)OCc1ccccc1)C(=O)OCc1ccccc1` (configuration not stated), the GI50 is 28.5 µM (inactive) in the experiment with HOP-62; 25 µM (inactive) in the experiment on SK-MEL-28; 83 µM (inactive) in the experiment with A549; 30.1 µM (inactive) in the experiment with SK-MEL-2; 33.4 µM (inactive) with TK-10; 18.8 µM (inactive) in the experiment on SNB-75. Besides, the GI50 with UACC-257 is 16.5 µM (inactive); in the experiment with RPMI-8226, 33.5 µM (inactive); in the experiment with 786-0, 17.5 µM (inactive); with OVCAR-4, 71.1 µM (inactive); with SF-295, 32.4 µM (inactive); in the experiment with HOP-92, 18.5 µM (inactive). Further, the GI50 is 13.1 µM (inactive) in the experiment with NCI-H522, 30.5 µM (inactive) in the experiment on Malme-3M, 48.8 µM (inactive) with K562 and 17.7 µM (inactive) with ACHN.
For the compound `CC(C)C(=O)N1Cc2cc(Cl)cc(Cl)c2OC(=O)c2ccccc21`, the GI50 in the experiment on HOP-62 is 31.2 µM (inactive); with SK-MEL-28, 42.4 µM (inactive); in the experiment with A549 it was 31 µM (inactive); in the experiment with SK-MEL-2, 21.5 µM (inactive); with TK-10, 29.7 µM (inactive); in the experiment with SNB-75 it was 30.3 µM (inactive). Moreover, the GI50 in the experiment with UACC-257 is 17.2 µM (inactive); in the experiment with RPMI-8226 it was 25.5 µM (inactive); in the experiment on 786-0, 35 µM (inactive); in the experiment with OVCAR-4 it was 28.8 µM (inactive); with SF-295 it was 26.7 µM (inactive); in the experiment with HOP-92, 24.7 µM (inactive). Besides, the GI50 in the experiment with NCI-H522 was 21 µM (inactive); in the experiment on Malme-3M, 20.9 µM (inactive); in the experiment on K562, 51.1 µM (inactive); in the experiment with ACHN, 24.5 µM (inactive).
On to `CC(C)(C)OC(=O)N1NC(c2ccccc2)CC1c1ccccc1` (configuration not stated), for which the GI50 with HOP-62 was 50.8 µM (inactive); in the experiment on A549 it was 13.8 µM (inactive); with TK-10 it was 37.3 µM (inactive); with SNB-75, 17.1 µM (inactive); in the experiment on UACC-257 it was 43.7 µM (inactive); with RPMI-8226, 35.6 µM (inactive). The GI50 in the experiment on MDA-MB-435 was 24.3 µM (inactive); in the experiment on 786-0, 38.3 µM (inactive); in the experiment with SF-295, 33.6 µM (inactive); with HOP-92, 37.7 µM (inactive); in the experiment on NCI-H522 it was 31.6 µM (inactive); in the experiment with MCF7, 23.7 µM (inactive). Further, the GI50 in the experiment on K562 was 31.7 µM (inactive); in the experiment with ACHN it was 28.1 µM (inactive).
As to `CC1=C(/C=C/C(C)=C/C2CC(N(C)C)=CC(=O)O2)C(C)(C)CCC1` (configuration not stated), the GI50 in the experiment with HOP-62 was 16.9 µM (inactive); with SK-MEL-28, 16.2 µM (inactive); in the experiment with A549 it was 9.75 µM (inactive); in the experiment with SK-MEL-2, 13.2 µM (inactive); in the experiment on TK-10, 14.1 µM (inactive); with SNB-75, 17.7 µM (inactive). Besides, the GI50 was 11.9 µM (inactive) with UACC-257; 1.37 µM (inactive) in the experiment with RPMI-8226; 15.4 µM (inactive) in the experiment with 786-0; 16 µM (inactive) in the experiment on OVCAR-4; 13 µM (inactive) in the experiment on SF-295; 16.4 µM (inactive) in the experiment with HOP-92. Besides, the GI50 in the experiment with NCI-H522 was > 10 µM (inactive); in the experiment on Malme-3M, 14.4 µM (inactive); with K562 it was 3.56 µM (inactive); with ACHN it was 12.1 µM (inactive).
As to `COc1cc([C@@H]2c3cc4c(c(O)c3C[C@H]3COC(=O)[C@@H]32)OCO4)cc(OC)c1O`, the GI50 in the experiment with HOP-62 was < 0.02 µM (active); with A549 it was < 0.02 µM (active); in the experiment with SK-MEL-2, 0.027 µM (active); in the experiment with TK-10 it was 0.00762 µM (active); with SNB-75, 25.4 µM (inactive); with UACC-257, < 0.02 µM (active). Moreover, the GI50 with RPMI-8226 is 0.026 µM (active); in the experiment on 786-0 it was 0.00596 µM (active); in the experiment on SF-295, < 0.02 µM (active); with HOP-92 it was < 0.02 µM (active); in the experiment on Malme-3M it was 0.0266 µM (active); in the experiment on MCF7, 0.0377 µM (active). The GI50 was 0.0243 µM (active) in the experiment on K562 and 0.00631 µM (active) in the experiment with ACHN.
Regarding `CCCCCCCCCCCCOC(=S)NCCCC`, the GI50 was 35.6 µM (inactive) in the experiment on HOP-62; 38 µM (inactive) with SK-MEL-28; 18.7 µM (inactive) in the experiment on SK-MEL-2; 35.3 µM (inactive) in the experiment with TK-10; 30.3 µM (inactive) with SNB-75; 16.5 µM (inactive) with UACC-257. The GI50 is 15.7 µM (inactive) in the experiment on RPMI-8226; 24.6 µM (inactive) in the experiment on 786-0; 25.8 µM (inactive) in the experiment with OVCAR-4; 36.9 µM (inactive) with SF-295; 20 µM (inactive) with HOP-92; 14.5 µM (inactive) in the experiment with NCI-H522. Further, the GI50 is 26.6 µM (inactive) in the experiment with Malme-3M, 19.3 µM (inactive) in the experiment with K562 and 22.4 µM (inactive) in the experiment on ACHN.
